{
  "source": "patent US20210187128A1",
  "about": "“COLOR CHANGING SILK PATCH FOR VISIBLE ROS DETECTION” (University of Central Florida Research Foundation, Inc., priority 2019, published 2021)",
  "key": {"[1]": {"conditions": "cited from earlier work"}, "[2]": {"test_system": "human skin keratinocyte (HaCat) cells", "test": "In vitro cellular biocompatibility of Amplex Red by MTT assay", "type": "cell-based", "conditions": "for cellular viability: highest concentration of 388 μM, beyond 80% considered biocompatible", "protocol": "Amplex Red compound was tested for in vitro cellular toxicity analysis against the human skin keratinocyte (HaCat) cells (purchased from ATCC, USA) using cell culture-based MTT assay. Herein, 10,000 cells were grown overnight into a 96 well plate using DMEM:F12 cell culture media. Different concentrations of Amplex red compound were prepared using incomplete cell culture media and incubated with HaCat cells for a time period of 24 hours and 48 hours respectively. Post incubation time period, MTT analysis was performed using the standard protocol described in Singh 2018, herein incorporated by reference into this disclosure in its entirety. (S. (Singh, A. Ly, S. Das, T. S. Sakthivel, S. Barkam and S. Seal, Artif. Cells, Nanomed., Biotechnol., 2018, 1-8). MTT assay compound (Thiazyolyl blue tetrazolium bromide) was then added for measuring the cellular viability, and absorbance was recorded for treated samples in comparison to control samples (HaCat cells only) and data analysis was performed."}},
  "data": [
    {"compound": "CC(=O)N1c2ccc(O)cc2Oc2cc(O)ccc21", "note": "[Amplex Red]", "values": [
      {"measurement": "detection limit for H2O2 in solutions", "setting": "[1]; in solutions", "result": 10, "unit": "picomolar"},
      {"measurement": "amount of H2O2 detected (limit of detection)", "setting": "[1]; with HRP, 100 μL volume", "result": 10, "unit": "picomoles"},
      {"measurement": "toxicity to the cells", "setting": "[2]", "result": "completely non-toxic"},
      {"measurement": "concentration found to be highly biocompatible", "setting": "[2]; 24 hours", "result": "up to 388 μM"},
      {"measurement": "cellular viability", "setting": "[2]; 24 hours", "result": "> 80", "unit": "%"},
      {"measurement": "concentration found to be highly biocompatible", "setting": "[2]; 48 hours", "result": "up to 388 μM"},
      {"measurement": "cellular viability", "setting": "[2]; 48 hours", "result": "> 80", "unit": "%"}
    ]}
  ]
}
